{
  "source": "patent US9255128B2",
  "about": "“Nucleic acid for determining actin structures in living cells” (Max-Planck-Gesellschaft zur Forderung der Wissenschaften …, priority 2007, dated 2016)",
  "key": {"F-actin in MDCK cells": {"system": "F-actin in MDCK cells", "test": "Double staining of PFA fixed MDCK cells with Cy3-conjugated phalloidin", "format": "cell-based, canine", "settings": "TIRF microscopy", "text": "(§1) TIRE images were captured on an iMic-stand from Till photonics with an 1.45 NA 100× objective from Olympus. A 300 mW Argon laser and a 20 mW DPSS 561 nm laser were selected through an AOTF. A 2-axis scan head (Yanus II) was used to digitally adjust the TIRE angle. Images were collected with a cooled Imago QE CCD camera. Acquisition was controlled by the TILLvisION software package. Confocal images were collected on a standard Leica SP2 setup. Epifluorescence images were collected on a Zeiss axiovert 200M stand equipped with a climate control chamber from EMBL."}, "non-muscle actin": {"target": "non-muscle actin", "test": "F-actin co-sedimentation assay, non-muscle actin", "format": "binding", "experimental": "Muscle actin, non-muscle actin, α-actinin and pyrene actin were purchased from Cytoskeleton, Inc. Actin was diluted to working concentrations in G buffer (2 mM Tris HCl, pH 8.0, 0.2 mM ATP, 0.1 mM CaCl2, 0.5 mM DTT).\nPolymerization of actin was induced by addition of 0.1 volume 10×KMEI buffer (50 mM KCl, 1 mM MgCl2, 1 mM EGTA, 10 mM imidazole HCl, pH 7.0) and incubation for >1 h at room temperature (RT). […] The supernatant was removed and the pellet resuspended in 100 μl of 1×KMEI buffer. The amount of peptide was measured in a Cary Eclipse Fluorescence Spectrophotometer with excitation/emission set for FITC at 495 nm/520 nm. The bound/total ratio was calculated as the signal from the pellet divided by the total signal. The Kd was obtained by fitting to a hyperbolic curve."}, "[1]": {"test": "Solubility of peptide in PBS", "format": "physicochemical"}, "[2]": {"system": "MDCK and mouse embryonic fibroblasts", "test": "Cytotoxicity, morphology and growth of transfected cells", "format": "cell-based", "settings": "transiently and stably transfected cells", "experimental": "(§2) Mouse primary dendritic cells were generated from flushed bone marrow suspension as described previously^30. At day 8-10 cells were nucleofected using the primary mouse T cell kit and the Amaxa nucleoporator according to the manufacturers recommendations and immediately after transfection 200 ng/ml LPS were added over night and cells were subsequently sorted into GFP positive and negative fractions by using fluorescent activated cell sorting. MDCK cells and mouse embryonic Fibroblasts were grown according to standard procedures and transfected using lipofectamine."}, "mouse dendritic cells": {"system": "mouse dendritic cells", "test": "Chemotactic dendritic cell migration in 3-dimensional collagen matrix", "format": "cell-based", "settings": "CCL19 gradient", "experimental": "as §2\nPureCol™ gels containing mature dendritic cells were cast as described previously. Gels were overlayed with 50 μl of 0.6 μg/ml CCL19 (R&D Systems) in RPMI, 10% FCS and imaged on an inverted Axiovert 40 (Zeiss) microscopes, equipped with custom built climate chambers (5% CO2, 37° C., humidified). Under agarose dendritic cell migration was performed as described^31. Briefly, dendritic cells were added into wells punched into an agarose layer. Recombinant CCL19 was added into the adjacent well and, following the chemokine gradient, the cells entered the space between agarose and coverslip. Chemotaxing cells were subsequently imaged with TIRF microscopy."}, "[3]": {"system": "primary rat hippocampal neurons", "test": "Neuronal polarization of transfected hippocampal neurons", "format": "cell-based", "settings": "mock transfected cells 69±9%", "experimental": "Primary hippocampal neurons were isolated from rat embryos as previously described. Briefly, hippocampi derived from E18 rats were dissected, trypsinized, and dissociated. Directly after dissociation, 5×10^5 hippocampal neurons were transfected by the Amaxa nucleofector system using 3 μg of highly purified plasmid DNA of pEGFP-Lifeact, pEGFP-actin or pEGFP-N2. The neurons were then immediately plated onto poly-L-lysine-coated glass coverslips in 6 cm petri dishes containing minimal essential medium (MEM) and 10% heat-inactivated horse serum. The cells were kept in 5% CO2 at 36.5° C. 6-12 hrs after plating the glass coverslips were then transferred into 6 cm petri dishes containing astrocytes in MEM and N2 supplements and kept in culture for 2DIV.\nNeurons were categorized into three stages: neurons with a single axon, multiple axons or no axon. A neurite length >35 μm was used as threshold to define the axon. Developmental stages were observed by live cell microscopy as described."}, "[4]": {"system": "mouse embryonic fibroblasts", "test": "Lamellipodial retrograde actin flow in fibroblasts", "format": "cell-based", "settings": "transfected fibroblasts; indistinguishable from untransfected cells", "text": "as §1\nAll image processing steps were performed in Metamorph (Molecular Devices). For visualization purposes sequences were routinely processed by sequential application of a local background subtraction filter and a 3×3 gauss low pass filter. Color overlays and kymographs were created with the respective functions in Metamorph.\nas §2, with “MDCK cells and mouse embryonic Fibroblasts were grown according to standard procedures and transfected using lipofectamine.” left out"}},
  "data": [
    {"compound": "CC[C@H](C)[C@H](NC(=O)[C@H](CC(C)C)NC(=O)[C@H](CC(=O)O)NC(=O)[C@H](C)NC(=O)[C@@H](NC(=O)CNC(=O)[C@H](CCSC)NC(=S)Nc1ccc2c(c1)C(=O)OC21c2ccc(O)cc2Oc2cc(O)ccc21)C(C)C)C(=O)N[C@@H](CCCCN)C(=O)N[C@@H](CCCCN)C(=O)N[C@@H](Cc1ccccc1)C(=O)N[C@@H](CCC(=O)O)C(=O)N[C@@H](CO)C(=O)N[C@H](C(=O)N[C@@H](CO)C(=O)N[C@@H](CCCCN)C(=O)N[C@@H](CCC(=O)O)C(=O)N[C@@H](CCC(=O)O)C(=O)O)[C@@H](C)CC", "note": "[F-Lifeact]", "values": [
      {"measurement": "overlap with phalloidin staining", "setting": "F-actin in MDCK cells", "value": "nearly complete overlap"},
      {"measurement": "Kd", "setting": "non-muscle actin", "value": "5.4 ± 2.6", "unit": "µM"}
    ]},
    {"compound": "CC[C@H](C)[C@H](NC(=O)[C@H](CC(C)C)NC(=O)[C@H](CC(=O)O)NC(=O)[C@H](C)NC(=O)[C@@H](NC(=O)CNC(=O)[C@@H](N)CCSC)C(C)C)C(=O)N[C@@H](CCCCN)C(=O)N[C@@H](CCCCN)C(=O)N[C@@H](Cc1ccccc1)C(=O)N[C@@H](CCC(=O)O)C(=O)N[C@@H](CO)C(=O)N[C@H](C(=O)N[C@@H](CO)C(=O)N[C@@H](CCCCN)C(=O)N[C@@H](CCC(=O)O)C(=O)N[C@@H](CCC(=O)O)C(=O)O)[C@@H](C)CC", "note": "[Lifeact]", "values": [
      {"measurement": "solubility in PBS", "setting": "[1]", "value": "not soluble in PBS"}
    ]},
    {"compound": "Lifeact-G: Lifeact-GFP fusion expressed from pEGFP-N1 backbone under the CMV promoter", "values": [
      {"measurement": "signs of cytotoxicity", "setting": "[2]", "value": "no signs of cytotoxicity"},
      {"measurement": "effect on speed of chemotactic dendritic cell migration", "setting": "mouse dendritic cells", "value": "no effect"},
      {"measurement": "cells formed one axon", "setting": "[3]", "value": "60.1±0.2", "unit": "%"},
      {"measurement": "speed of retrograde flow in lamellipodia", "setting": "[4]", "value": 4, "unit": "μm/min"}
    ]}
  ]
}
